Measured values published in PubChem BioAssay (NCI).
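Assay format: 96-well plates, 48-hour exposure. TGI: total growth inhibition.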

Experiments:
Assay in all cases: DTP human tumour cell line panel, 48 h
786-0 renal = system: 786-0 renal
A498 renal = system: A498 renal
A549 NSCLC = system: A549 NSCLC
ACHN renal = system: ACHN renal
BT-549 breast = system: BT-549 breast
CAKI-1 renal = system: CAKI-1 renal
CCRF-CEM leukemia = system: CCRF-CEM leukemia
COLO 205 colon = system: COLO 205 colon
DU-145 prostate = system: DU-145 prostate
EKVX NSCLC = system: EKVX NSCLC
HCC-2998 colon = system: HCC-2998 colon
HCT-116 colon = system: HCT-116 colon
HCT-15 colon = system: HCT-15 colon
HL-60(TB) leukemia = system: HL-60(TB) leukemia
HOP-62 NSCLC = system: HOP-62 NSCLC
HOP-92 NSCLC = system: HOP-92 NSCLC
HS 578T breast = system: HS 578T breast
HT29 colon = system: HT29 colon
K-562 leukemia = system: K-562 leukemia
KM12 colon = system: KM12 colon
LOX IMVI melanoma = system: LOX IMVI melanoma
M14 melanoma = system: M14 melanoma
MCF7 breast = system: MCF7 breast
MDA-MB-231 breast = system: MDA-MB-231 breast
MDA-MB-435 = system: MDA-MB-435
MDA-N = system: MDA-N
MOLT-4 leukemia = system: MOLT-4 leukemia
NCI-H23 lung = system: NCI-H23 lung
NCI-H460 lung = system: NCI-H460 lung
NCI/ADR-RES ovarian = system: NCI/ADR-RES ovarian
OVCAR-3 ovarian = system: OVCAR-3 ovarian
OVCAR-4 ovarian = system: OVCAR-4 ovarian
OVCAR-5 ovarian = system: OVCAR-5 ovarian
OVCAR-8 ovarian = system: OVCAR-8 ovarian
PC-3 prostate = system: PC-3 prostate
RPMI-8226 leukemia = system: RPMI-8226 leukemia
RXF 393 renal = system: RXF 393 renal
SF-268 CNS = system: SF-268 CNS
SF-295 CNS = system: SF-295 CNS
SF-539 CNS = system: SF-539 CNS
SK-MEL-2 melanoma = system: SK-MEL-2 melanoma
SK-MEL-28 melanoma = system: SK-MEL-28 melanoma
SK-MEL-5 melanoma = system: SK-MEL-5 melanoma
SK-OV-3 ovarian = system: SK-OV-3 ovarian
SN12C renal = system: SN12C renal
SNB-19 CNS = system: SNB-19 CNS
SNB-75 CNS = system: SNB-75 CNS
SR leukemia = system: SR leukemia
SW-620 colon = system: SW-620 colon
T-47D breast = system: T-47D breast
TK-10 renal = system: TK-10 renal
U251 CNS = system: U251 CNS
UACC-257 melanoma = system: UACC-257 melanoma
UACC-62 melanoma = system: UACC-62 melanoma
UO-31 renal = system: UO-31 renal
IGROV1 ovarian = system: IGROV1 ovarian
MALME-3M melanoma = system: MALME-3M melanoma
NCI-H226 lung = system: NCI-H226 lung
NCI-H522 lung = system: NCI-H522 lung

Fc1ccccc1C1SCC2=Nc3ccccc3CN21 (stereo unspecified)
TGI (786-0 renal): > 100 µM | TGI (A498 renal): > 100 µM | TGI (A549 NSCLC): > 100 µM | TGI (ACHN renal): > 100 µM | TGI (BT-549 breast): > 100 µM | TGI (CAKI-1 renal): > 100 µM | TGI (CCRF-CEM leukemia): > 100 µM | TGI (COLO 205 colon): > 100 µM | TGI (DU-145 prostate): > 100 µM | TGI (EKVX NSCLC): > 100 µM | TGI (HCC-2998 colon): > 100 µM | TGI (HCT-116 colon): > 100 µM | TGI (HCT-15 colon): > 100 µM | TGI (HL-60(TB) leukemia): > 100 µM | TGI (HOP-62 NSCLC): > 100 µM | TGI (HOP-92 NSCLC): > 100 µM | TGI (HS 578T breast): > 100 µM | TGI (HT29 colon): > 100 µM | TGI (K-562 leukemia): > 100 µM | TGI (KM12 colon): > 100 µM | TGI (LOX IMVI melanoma): > 100 µM | TGI (M14 melanoma): > 100 µM | TGI (MCF7 breast): > 100 µM | TGI (MDA-MB-231 breast): > 100 µM | TGI (MDA-MB-435): > 100 µM | TGI (MDA-N): > 100 µM | TGI (MOLT-4 leukemia): > 100 µM | TGI (NCI-H23 lung): > 100 µM | TGI (NCI-H460 lung): > 100 µM | TGI (NCI/ADR-RES ovarian): > 100 µM | TGI (OVCAR-3 ovarian): > 100 µM | TGI (OVCAR-4 ovarian): > 100 µM | TGI (OVCAR-5 ovarian): > 100 µM | TGI (OVCAR-8 ovarian): > 100 µM | TGI (PC-3 prostate): > 100 µM | TGI (RPMI-8226 leukemia): > 100 µM | TGI (RXF 393 renal): > 100 µM | TGI (SF-268 CNS): > 100 µM | TGI (SF-295 CNS): > 100 µM | TGI (SF-539 CNS): > 100 µM | TGI (SK-MEL-2 melanoma): > 100 µM | TGI (SK-MEL-28 melanoma): > 100 µM | TGI (SK-MEL-5 melanoma): > 100 µM | TGI (SK-OV-3 ovarian): > 100 µM | TGI (SN12C renal): > 100 µM | TGI (SNB-19 CNS): > 100 µM | TGI (SNB-75 CNS): > 100 µM | TGI (SR leukemia): > 100 µM | TGI (SW-620 colon): > 100 µM | TGI (T-47D breast): > 100 µM | TGI (TK-10 renal): > 100 µM | TGI (U251 CNS): > 100 µM | TGI (UACC-257 melanoma): > 100 µM | TGI (UACC-62 melanoma): > 100 µM | TGI (UO-31 renal): > 100 µM

COc1ccc(/C=C(\C#N)c2nc(-c3cc4ccccc4oc3=O)cs2)cc1
TGI (786-0 renal): 41.4 µM | TGI (A549 NSCLC): > 100 µM | TGI (ACHN renal): 42.2 µM | TGI (BT-549 breast): 30.3 µM | TGI (CAKI-1 renal): > 100 µM | TGI (CCRF-CEM leukemia): > 100 µM | TGI (COLO 205 colon): > 100 µM | TGI (DU-145 prostate): > 100 µM | TGI (EKVX NSCLC): > 100 µM | TGI (HCC-2998 colon): > 100 µM | TGI (HCT-116 colon): > 100 µM | TGI (HCT-15 colon): > 100 µM | TGI (HL-60(TB) leukemia): > 100 µM | TGI (HOP-62 NSCLC): 29.5 µM | TGI (HOP-92 NSCLC): 36.2 µM | TGI (HS 578T breast): > 100 µM | TGI (HT29 colon): > 100 µM | TGI (IGROV1 ovarian): 62.2 µM | TGI (K-562 leukemia): > 100 µM | TGI (KM12 colon): > 100 µM | TGI (LOX IMVI melanoma): > 100 µM | TGI (M14 melanoma): 86 µM | TGI (MALME-3M melanoma): 91.3 µM | TGI (MCF7 breast): > 100 µM | TGI (MDA-MB-231 breast): 31 µM | TGI (MDA-MB-435): > 100 µM | TGI (MDA-N): > 100 µM | TGI (MOLT-4 leukemia): > 100 µM | TGI (NCI-H226 lung): > 100 µM | TGI (NCI-H460 lung): 57.1 µM | TGI (NCI-H522 lung): 57.5 µM | TGI (NCI/ADR-RES ovarian): > 100 µM | TGI (OVCAR-4 ovarian): 58.8 µM | TGI (OVCAR-5 ovarian): > 100 µM | TGI (OVCAR-8 ovarian): 44.4 µM | TGI (PC-3 prostate): > 100 µM | TGI (RPMI-8226 leukemia): > 100 µM | TGI (RXF 393 renal): 45.4 µM | TGI (SF-268 CNS): 83.4 µM | TGI (SF-295 CNS): 55.9 µM | TGI (SF-539 CNS): 54.9 µM | TGI (SK-MEL-2 melanoma): > 100 µM | TGI (SK-MEL-28 melanoma): > 100 µM | TGI (SK-MEL-5 melanoma): > 100 µM | TGI (SK-OV-3 ovarian): 36.6 µM | TGI (SN12C renal): > 100 µM | TGI (SNB-19 CNS): 34.9 µM | TGI (SNB-75 CNS): 59.5 µM | TGI (SR leukemia): > 100 µM | TGI (SW-620 colon): 66.8 µM | TGI (T-47D breast): > 100 µM | TGI (TK-10 renal): 65.6 µM | TGI (U251 CNS): 27.3 µM | TGI (UACC-257 melanoma): > 100 µM | TGI (UACC-62 melanoma): 49.3 µM | TGI (UO-31 renal): 57.4 µM
